# Laboratory results: ChEMBL document CHEMBL1909046, “DrugMatrix in vitro pharmacology data”
# pIC50, pKi: −log10 of the molar value.
# Assays:
# [1] = molecular target: Sodium-dependent noradrenaline transporter (Homo sapiens, UniProt P23975); test: DRUGMATRIX: Norepinephrine Transporter radioligand binding (ligand: [125I] RTI-55); assay type: cell membranes, MDCK, Membrane; conditions: mdck, Not Active = under 50% inhibition at 10 µM
# Calcitonin receptor = molecular target: T1, Calcitonin receptor (Homo sapiens, UniProt P30988); assay type: cell membranes, Membrane; conditions: t47d; note: in other assays of this panel Not Active means under 50% inhibition at 10 µM
# T1 sequence (P30988 whole entry): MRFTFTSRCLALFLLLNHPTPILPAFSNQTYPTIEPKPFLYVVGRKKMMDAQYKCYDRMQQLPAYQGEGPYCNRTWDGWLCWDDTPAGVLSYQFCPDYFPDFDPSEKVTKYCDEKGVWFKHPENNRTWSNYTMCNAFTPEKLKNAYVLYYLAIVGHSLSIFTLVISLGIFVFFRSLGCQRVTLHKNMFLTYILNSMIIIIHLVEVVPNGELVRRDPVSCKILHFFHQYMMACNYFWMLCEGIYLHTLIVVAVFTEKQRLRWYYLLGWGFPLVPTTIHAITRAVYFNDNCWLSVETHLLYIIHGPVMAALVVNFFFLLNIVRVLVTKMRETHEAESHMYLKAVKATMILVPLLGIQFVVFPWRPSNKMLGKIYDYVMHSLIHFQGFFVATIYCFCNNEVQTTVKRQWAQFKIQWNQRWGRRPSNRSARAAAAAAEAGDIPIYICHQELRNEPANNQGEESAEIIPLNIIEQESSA
# [2] = molecular target: Sigma non-opioid intracellular receptor 1 (Homo sapiens, UniProt Q99720); test: DRUGMATRIX: Sigma1 radioligand binding (ligand: [3H] Haloperidol); assay type: cell membranes, Jurkat, Membrane; conditions: jurkat; Not Active = under 50% inhibition at 10 µM
# [3] = molecular target: T2, C-X-C chemokine receptor type 2 (Homo sapiens, UniProt P25025); assay type: cell membranes, Membrane; conditions: cho-k1; note: in other assays of this panel Not Active means under 50% inhibition at 10 µM
# T2 sequence (P25025 whole entry): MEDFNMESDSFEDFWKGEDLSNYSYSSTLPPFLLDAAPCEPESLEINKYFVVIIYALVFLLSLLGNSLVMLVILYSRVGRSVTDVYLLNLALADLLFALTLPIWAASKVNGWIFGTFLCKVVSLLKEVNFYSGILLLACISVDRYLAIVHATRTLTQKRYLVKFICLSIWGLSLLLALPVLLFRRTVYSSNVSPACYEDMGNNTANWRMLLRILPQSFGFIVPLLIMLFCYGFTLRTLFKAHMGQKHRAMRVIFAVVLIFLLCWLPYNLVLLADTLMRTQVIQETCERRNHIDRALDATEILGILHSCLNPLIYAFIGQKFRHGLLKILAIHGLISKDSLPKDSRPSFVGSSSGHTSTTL
# D(3) dopamine receptor = D(3) dopamine receptor (Homo sapiens, UniProt P35462); test: DRUGMATRIX: Dopamine D3 radioligand binding (ligand: [3H] Spiperone); assay type: cell membranes, CHO, Membrane; conditions: cho
# [4] = DRUGMATRIX: GABAA, Chloride Channel, TBOB radioligand binding (ligand: [3H] TBOB); assay type: cell membranes, Rattus norvegicus, Wistar, Cerebral cortex, Membrane; conditions: Not Active = under 50% inhibition at 10 µM
# Melanocortin receptor 3 = Melanocortin receptor 3 (Homo sapiens, UniProt P41968); assay type: cell membranes, Membrane; conditions: hek293; note: in other assays of this panel Not Active means under 50% inhibition at 10 µM
# [5] = molecular target: Platelet-activating factor receptor (Homo sapiens, UniProt P25105); test: biochemical; assay type: tissue-based; conditions: platelet; note: in other assays of this panel Not Active means under 50% inhibition at 10 µM
# [6] = molecular target: Mitogen-activated protein kinase 1 (Homo sapiens, UniProt P28482); test: DRUGMATRIX: Protein Serine/Threonine Kinase, ERK2 enzyme inhibition (substrate: Myelin Basic Protein); design: species or system Escherichia coli; conditions: Not Active = under 50% inhibition at 10 µM
# [7] = molecular target: Mitogen-activated protein kinase 14 (Homo sapiens, UniProt Q16539); design: species or system Escherichia coli
# Cytochrome P450 1A2 = molecular target: T3, Cytochrome P450 1A2 (Homo sapiens, UniProt P05177); conditions: bti-tn-5b1-4; note: in other assays of this panel Not Active means under 50% inhibition at 10 µM
# T3 sequence (P05177 whole entry): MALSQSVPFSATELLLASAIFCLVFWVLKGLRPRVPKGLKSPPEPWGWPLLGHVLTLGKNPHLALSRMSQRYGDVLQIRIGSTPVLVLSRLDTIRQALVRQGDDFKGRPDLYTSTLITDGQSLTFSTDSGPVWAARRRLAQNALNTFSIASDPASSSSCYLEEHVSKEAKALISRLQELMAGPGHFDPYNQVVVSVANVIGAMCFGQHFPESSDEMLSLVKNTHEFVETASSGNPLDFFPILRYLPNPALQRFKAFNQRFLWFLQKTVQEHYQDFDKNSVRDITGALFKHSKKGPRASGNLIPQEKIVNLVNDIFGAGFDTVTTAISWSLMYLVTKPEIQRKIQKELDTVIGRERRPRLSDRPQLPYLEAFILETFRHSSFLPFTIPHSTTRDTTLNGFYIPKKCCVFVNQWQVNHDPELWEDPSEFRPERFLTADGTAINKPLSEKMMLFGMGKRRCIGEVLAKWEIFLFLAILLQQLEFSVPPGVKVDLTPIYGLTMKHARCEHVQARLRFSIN
# Cytochrome P450 2C19 = Cytochrome P450 2C19 (Homo sapiens, UniProt P33261); conditions: bti-tn-5b1-4; note: in other assays of this panel Not Active means under 50% inhibition at 10 µM
# Cytochrome P450 2C9 = Cytochrome P450 2C9 (Homo sapiens, UniProt P11712); conditions: bti-tn-5b1-4; note: in other assays of this panel Not Active means under 50% inhibition at 10 µM
# Cytochrome P450 2D6 = Cytochrome P450 2D6 (Homo sapiens, UniProt P10635); conditions: bti-tn-5b1-4; note: in other assays of this panel Not Active means under 50% inhibition at 10 µM
# Cytochrome P450 2E1 = Cytochrome P450 2E1 (Homo sapiens, UniProt P05181); conditions: bti-tn-5b1-4; note: in other assays of this panel Not Active means under 50% inhibition at 10 µM
# Estrogen receptor beta = Estrogen receptor beta (Homo sapiens, UniProt Q92731); conditions: sf9; note: in other assays of this panel Not Active means under 50% inhibition at 10 µM
# [8] = molecular target: Voltage-gated inwardly rectifying potassium channel KCNH2 (Homo sapiens, UniProt Q12809); conditions: hek293; note: in other assays of this panel Not Active means under 50% inhibition at 10 µM
# Mitogen-activated protein kinase 14, sequence (Q16539 whole entry): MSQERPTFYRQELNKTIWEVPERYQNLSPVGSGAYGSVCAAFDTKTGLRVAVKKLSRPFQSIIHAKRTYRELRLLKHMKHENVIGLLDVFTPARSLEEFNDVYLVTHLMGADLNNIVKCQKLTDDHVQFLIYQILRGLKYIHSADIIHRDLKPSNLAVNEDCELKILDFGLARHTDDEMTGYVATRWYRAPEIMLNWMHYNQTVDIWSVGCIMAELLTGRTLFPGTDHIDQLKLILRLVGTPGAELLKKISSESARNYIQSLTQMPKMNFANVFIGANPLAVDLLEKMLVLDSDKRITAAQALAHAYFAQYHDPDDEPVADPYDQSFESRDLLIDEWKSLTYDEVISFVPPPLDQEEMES
# Cytochrome P450 2D6, sequence (P10635 whole entry): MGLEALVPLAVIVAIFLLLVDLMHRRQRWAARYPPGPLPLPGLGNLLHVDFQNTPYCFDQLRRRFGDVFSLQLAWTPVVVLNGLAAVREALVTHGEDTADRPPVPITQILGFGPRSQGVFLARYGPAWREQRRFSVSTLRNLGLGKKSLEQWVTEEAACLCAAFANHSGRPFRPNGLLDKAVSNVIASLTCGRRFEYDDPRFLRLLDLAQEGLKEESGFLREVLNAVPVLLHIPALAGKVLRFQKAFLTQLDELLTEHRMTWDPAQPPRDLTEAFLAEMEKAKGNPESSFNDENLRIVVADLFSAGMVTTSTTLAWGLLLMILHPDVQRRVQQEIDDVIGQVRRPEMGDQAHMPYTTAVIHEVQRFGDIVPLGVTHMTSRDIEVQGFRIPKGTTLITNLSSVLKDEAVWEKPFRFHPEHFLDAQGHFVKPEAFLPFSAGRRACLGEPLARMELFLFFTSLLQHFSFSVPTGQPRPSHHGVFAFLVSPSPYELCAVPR
# Cytochrome P450 2C9, sequence (P11712 whole entry): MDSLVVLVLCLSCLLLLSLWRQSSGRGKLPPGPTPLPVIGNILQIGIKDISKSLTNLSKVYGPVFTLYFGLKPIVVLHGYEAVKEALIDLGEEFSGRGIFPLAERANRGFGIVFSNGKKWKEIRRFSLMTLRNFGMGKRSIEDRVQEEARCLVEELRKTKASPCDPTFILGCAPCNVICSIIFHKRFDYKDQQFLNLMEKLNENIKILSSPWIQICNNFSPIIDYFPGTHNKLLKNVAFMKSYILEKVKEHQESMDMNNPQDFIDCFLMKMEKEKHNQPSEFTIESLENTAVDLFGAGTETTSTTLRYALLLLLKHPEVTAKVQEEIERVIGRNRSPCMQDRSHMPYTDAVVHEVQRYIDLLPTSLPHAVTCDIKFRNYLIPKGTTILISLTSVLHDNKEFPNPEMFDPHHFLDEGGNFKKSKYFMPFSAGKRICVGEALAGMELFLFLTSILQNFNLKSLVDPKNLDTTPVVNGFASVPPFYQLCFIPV
# Cytochrome P450 2C19, sequence (P33261 whole entry): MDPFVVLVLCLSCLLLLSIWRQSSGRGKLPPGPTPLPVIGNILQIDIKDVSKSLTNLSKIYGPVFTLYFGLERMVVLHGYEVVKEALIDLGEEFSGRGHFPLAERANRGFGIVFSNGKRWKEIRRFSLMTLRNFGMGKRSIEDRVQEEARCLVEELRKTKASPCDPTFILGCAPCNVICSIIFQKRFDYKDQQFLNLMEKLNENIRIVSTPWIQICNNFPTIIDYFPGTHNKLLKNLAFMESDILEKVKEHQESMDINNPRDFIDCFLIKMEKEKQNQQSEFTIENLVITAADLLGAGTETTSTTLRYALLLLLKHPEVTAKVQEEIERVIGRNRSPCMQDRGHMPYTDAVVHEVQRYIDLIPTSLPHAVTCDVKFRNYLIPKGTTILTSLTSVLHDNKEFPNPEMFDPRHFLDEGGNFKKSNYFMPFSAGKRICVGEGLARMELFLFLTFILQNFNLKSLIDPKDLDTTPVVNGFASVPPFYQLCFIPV
# Mitogen-activated protein kinase 1, sequence (P28482 whole entry): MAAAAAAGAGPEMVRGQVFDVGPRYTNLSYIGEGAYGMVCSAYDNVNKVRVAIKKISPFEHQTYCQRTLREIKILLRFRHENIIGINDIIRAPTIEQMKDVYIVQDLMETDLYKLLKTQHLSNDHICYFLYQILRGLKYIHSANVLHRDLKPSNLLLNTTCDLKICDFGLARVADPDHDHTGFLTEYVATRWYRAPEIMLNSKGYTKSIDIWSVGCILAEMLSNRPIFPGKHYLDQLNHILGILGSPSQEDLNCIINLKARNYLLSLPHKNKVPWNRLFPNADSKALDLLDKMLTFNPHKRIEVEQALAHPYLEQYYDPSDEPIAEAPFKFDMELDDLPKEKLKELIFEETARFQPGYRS
# Melanocortin receptor 3, sequence (P41968 whole entry): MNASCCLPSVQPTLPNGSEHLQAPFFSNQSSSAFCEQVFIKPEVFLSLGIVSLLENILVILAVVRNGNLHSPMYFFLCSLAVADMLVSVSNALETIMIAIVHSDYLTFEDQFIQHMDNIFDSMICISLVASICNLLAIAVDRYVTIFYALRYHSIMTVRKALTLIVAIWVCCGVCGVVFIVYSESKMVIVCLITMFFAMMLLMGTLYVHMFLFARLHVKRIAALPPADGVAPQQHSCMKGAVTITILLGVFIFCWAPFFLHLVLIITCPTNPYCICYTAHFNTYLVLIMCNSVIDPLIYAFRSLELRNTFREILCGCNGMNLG
# Sigma non-opioid intracellular receptor 1, sequence (Q99720 whole entry): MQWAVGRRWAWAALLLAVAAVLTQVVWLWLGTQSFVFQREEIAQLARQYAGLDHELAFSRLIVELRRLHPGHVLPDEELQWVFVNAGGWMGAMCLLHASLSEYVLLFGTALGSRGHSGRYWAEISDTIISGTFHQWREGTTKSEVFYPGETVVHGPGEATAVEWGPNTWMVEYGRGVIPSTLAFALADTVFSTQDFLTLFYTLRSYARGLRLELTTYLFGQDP
# Sodium-dependent noradrenaline transporter, sequence (P23975 whole entry): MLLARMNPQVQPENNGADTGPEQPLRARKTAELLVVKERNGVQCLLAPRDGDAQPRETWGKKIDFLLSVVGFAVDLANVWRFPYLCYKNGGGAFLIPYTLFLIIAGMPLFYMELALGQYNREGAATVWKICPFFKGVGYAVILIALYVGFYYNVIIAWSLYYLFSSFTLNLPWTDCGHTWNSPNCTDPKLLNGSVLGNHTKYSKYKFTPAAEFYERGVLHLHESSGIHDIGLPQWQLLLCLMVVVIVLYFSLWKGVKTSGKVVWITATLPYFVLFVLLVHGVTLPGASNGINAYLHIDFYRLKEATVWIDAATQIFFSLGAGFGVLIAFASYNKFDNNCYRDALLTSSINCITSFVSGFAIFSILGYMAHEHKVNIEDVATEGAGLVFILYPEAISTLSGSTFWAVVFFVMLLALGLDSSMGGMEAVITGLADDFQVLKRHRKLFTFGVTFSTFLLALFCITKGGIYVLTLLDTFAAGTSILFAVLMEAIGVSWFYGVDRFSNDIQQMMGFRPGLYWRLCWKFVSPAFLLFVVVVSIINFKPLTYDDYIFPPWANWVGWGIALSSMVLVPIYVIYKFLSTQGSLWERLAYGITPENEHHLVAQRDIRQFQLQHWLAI
# Platelet-activating factor receptor, sequence (P25105 whole entry): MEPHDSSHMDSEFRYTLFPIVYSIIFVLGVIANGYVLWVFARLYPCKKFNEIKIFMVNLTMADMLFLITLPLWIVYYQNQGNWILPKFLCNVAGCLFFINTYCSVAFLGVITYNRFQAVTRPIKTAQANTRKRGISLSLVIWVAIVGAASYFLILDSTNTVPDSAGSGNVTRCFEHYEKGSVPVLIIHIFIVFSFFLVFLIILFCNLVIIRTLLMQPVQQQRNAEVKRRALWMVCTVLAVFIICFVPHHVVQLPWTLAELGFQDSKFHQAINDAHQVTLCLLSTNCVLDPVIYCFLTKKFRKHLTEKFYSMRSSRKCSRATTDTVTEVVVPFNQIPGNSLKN
# Estrogen receptor beta, sequence (Q92731 whole entry): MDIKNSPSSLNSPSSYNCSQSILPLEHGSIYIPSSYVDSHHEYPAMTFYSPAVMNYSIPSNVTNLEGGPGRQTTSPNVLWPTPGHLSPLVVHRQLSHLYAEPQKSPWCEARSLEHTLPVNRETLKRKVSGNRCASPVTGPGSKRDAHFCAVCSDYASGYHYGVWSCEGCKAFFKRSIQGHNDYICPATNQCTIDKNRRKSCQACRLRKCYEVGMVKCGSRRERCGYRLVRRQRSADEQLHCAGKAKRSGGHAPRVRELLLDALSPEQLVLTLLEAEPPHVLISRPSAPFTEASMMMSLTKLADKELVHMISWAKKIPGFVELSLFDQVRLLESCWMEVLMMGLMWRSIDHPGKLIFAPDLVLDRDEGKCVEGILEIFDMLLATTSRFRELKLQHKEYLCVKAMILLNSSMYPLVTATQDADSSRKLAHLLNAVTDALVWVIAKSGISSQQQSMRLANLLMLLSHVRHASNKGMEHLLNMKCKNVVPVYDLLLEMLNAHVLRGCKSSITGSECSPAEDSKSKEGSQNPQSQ
# Cytochrome P450 2E1, sequence (P05181 whole entry): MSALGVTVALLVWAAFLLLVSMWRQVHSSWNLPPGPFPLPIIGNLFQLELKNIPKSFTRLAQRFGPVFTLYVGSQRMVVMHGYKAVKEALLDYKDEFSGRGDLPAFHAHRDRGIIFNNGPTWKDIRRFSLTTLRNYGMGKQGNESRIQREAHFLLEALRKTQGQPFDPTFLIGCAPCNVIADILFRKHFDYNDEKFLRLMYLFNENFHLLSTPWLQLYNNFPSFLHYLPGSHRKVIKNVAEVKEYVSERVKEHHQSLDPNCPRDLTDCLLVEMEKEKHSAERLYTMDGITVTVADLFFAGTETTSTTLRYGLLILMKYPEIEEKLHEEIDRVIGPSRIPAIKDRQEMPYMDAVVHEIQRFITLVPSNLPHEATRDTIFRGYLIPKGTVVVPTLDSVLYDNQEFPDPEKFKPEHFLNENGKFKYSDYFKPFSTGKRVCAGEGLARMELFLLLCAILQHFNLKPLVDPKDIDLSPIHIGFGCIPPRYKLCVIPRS
sequence,measurement,setting,value
IVERMECTIN,pIC50,[1]; read-out: IC50,5.40
same,pKi,[1]; read-out: Ki,5.41
same,IC50,Calcitonin receptor,Not Active
same,Ki,Calcitonin receptor,Not Active
same,IC50,[2],Not Active
same,Ki,[2],Not Active
same,IC50,[3],Not Active
same,Ki,[3],Not Active
same,pIC50,D(3) dopamine receptor; read-out: IC50,5.66
same,pKi,D(3) dopamine receptor; read-out: Ki,6.12
same,IC50,[4],Not Active
same,Ki,[4],Not Active
same,IC50,Melanocortin receptor 3,Not Active
same,Ki,Melanocortin receptor 3,Not Active
same,IC50,[5],Not Active
same,Ki,[5],Not Active
same,IC50,[6],Not Active
same,Ki,[6],Not Active
same,IC50,[7],Not Active
same,Ki,[7],Not Active
same,IC50,Cytochrome P450 1A2,Not Active
same,Ki,Cytochrome P450 1A2,Not Active
same,IC50,Cytochrome P450 2C19,Not Active
same,Ki,Cytochrome P450 2C19,Not Active
same,IC50,Cytochrome P450 2C9,Not Active
same,Ki,Cytochrome P450 2C9,Not Active
same,IC50,Cytochrome P450 2D6,Not Active
same,Ki,Cytochrome P450 2D6,Not Active
same,IC50,Cytochrome P450 2E1,Not Active
same,Ki,Cytochrome P450 2E1,Not Active
same,IC50,Estrogen receptor beta,Not Active
same,Ki,Estrogen receptor beta,Not Active
same,IC50,[8],Not Active
same,Ki,[8],Not Active
